Test results: the NIST ThermoML archive (doi:10.1016/j.jct.2007.06.009)

Columns and labels:
[1] = refractive index (Na D-line) (dimensionless); details: 303.15 K; 101.33 kPa; Liquid; Standard Abbe refractometry
[2] = 303.15 K; 101 kPa; Liquid
[3] = refractive index (Na D-line) (dimensionless); xn = mol fraction of the nth substance listed; details: 303.15 K, 101 kPa, Liquid, Standard Abbe refractometry
[4] = excess molar enthalpy (molar enthalpy of mixing); xn = mol fraction of the nth substance listed; details: 303 K, 101 kPa, Liquid
[5] = xn = mol fraction of the nth substance listed; details: 303.15 K, 101 kPa, Liquid

CCCCO [butan-1-ol]
Details | mass density [kg/m3] | refractive index | viscosity [mPa·s]
[1] | – | 1.39479 | –
[2] | 802.2 | – | 2.195

CCCCO [butan-1-ol] + CCC(C)=O
x1 = 1
Details | excess molar enthalpy [kcal/mol] | mass density [kg/m3] | refractive index | viscosity [mPa·s]
[3] | – | – | 1.39479 | –
[4] | 0 | – | – | –
[5] | – | 802.2 | – | 2.195

CCC(C)=O [butanone]
Details | mass density [kg/m3] | refractive index | viscosity [mPa·s]
[1] | – | 1.37383 | –
[2] | 794.5 | – | 0.347

CCC(C)=O [butanone] + CCCCO
Details | excess molar enthalpy [kcal/mol] | mass density [kg/m3] | refractive index | viscosity [mPa·s]
[3], x2 = 0 | – | – | 1.37383 | –
[3], x2 = 0.0765 | – | – | 1.37557 | –
[3], x2 = 0.1392 | – | – | 1.37702 | –
[3], x2 = 0.2097 | – | – | 1.37867 | –
[3], x2 = 0.2775 | – | – | 1.3802 | –
[3], x2 = 0.3488 | – | – | 1.3819 | –
[3], x2 = 0.442 | – | – | 1.38402 | –
[3], x2 = 0.4933 | – | – | 1.38514 | –
[3], x2 = 0.5008 | – | – | 1.38533 | –
[3], x2 = 0.5577 | – | – | 1.3866 | –
[3], x2 = 0.6404 | – | – | 1.38835 | –
[3], x2 = 0.6474 | – | – | 1.38848 | –
[3], x2 = 0.7257 | – | – | 1.39011 | –
[3], x2 = 0.7944 | – | – | 1.39145 | –
[3], x2 = 0.8562 | – | – | 1.3926 | –
[3], x2 = 0.9307 | – | – | 1.39387 | –
[4], x2 = 0 | 0 | – | – | –
[4], x2 = 0.134 | 0.154 | – | – | –
[4], x2 = 0.193 | 0.22 | – | – | –
[4], x2 = 0.289 | 0.281 | – | – | –
[4], x2 = 0.35 | 0.324 | – | – | –
[4], x2 = 0.425 | 0.352 | – | – | –
[4], x2 = 0.514 | 0.351 | – | – | –
[4], x2 = 0.619 | 0.337 | – | – | –
[4], x2 = 0.7 | 0.293 | – | – | –
[4], x2 = 0.769 | 0.268 | – | – | –
[4], x2 = 0.82 | 0.203 | – | – | –
[4], x2 = 0.911 | 0.141 | – | – | –
[5], x2 = 0 | – | 794.5 | – | 0.347
[5], x2 = 0.0704 | – | – | – | 0.364
[5], x2 = 0.0765 | – | 795 | – | –
[5], x2 = 0.1392 | – | 795.4 | – | –
[5], x2 = 0.1468 | – | – | – | 0.388
[5], x2 = 0.2097 | – | 795.9 | – | –
[5], x2 = 0.2163 | – | – | – | 0.421
[5], x2 = 0.2775 | – | 796.4 | – | –
[5], x2 = 0.2818 | – | – | – | 0.455
[5], x2 = 0.3429 | – | – | – | 0.479
[5], x2 = 0.3488 | – | 796.9 | – | –
[5], x2 = 0.4244 | – | – | – | 0.553
[5], x2 = 0.442 | – | 797.6 | – | –
[5], x2 = 0.4933 | – | 798 | – | –
[5], x2 = 0.4988 | – | – | – | 0.615
[5], x2 = 0.5008 | – | 798.1 | – | –
[5], x2 = 0.5577 | – | 798.5 | – | –
[5], x2 = 0.5755 | – | – | – | 0.704
[5], x2 = 0.6404 | – | 799.2 | – | –
[5], x2 = 0.6474 | – | 799.3 | – | 0.813
[5], x2 = 0.7105 | – | – | – | 0.925
[5], x2 = 0.7257 | – | 799.9 | – | –
[5], x2 = 0.7799 | – | – | – | 1.091
[5], x2 = 0.7944 | – | 800.5 | – | –
[5], x2 = 0.8562 | – | 801 | – | –
[5], x2 = 0.8596 | – | – | – | 1.342
[5], x2 = 0.9263 | – | – | – | 1.645
[5], x2 = 0.9307 | – | 801.6 | – | –
